From US20140142352A1, “BUTANOL PURIFICATION” (BUTAMAX ADVANCED BIOFUELS LLC, priority 2012, published 2014)
Where two headings read alike, the source gives them in different places. Each block holds one molecule with its values, some of them ahead of it.

How the values were obtained:
isobutanologen PNY 2242 = test: SSF corn mash fermentation of isobutanologen with extractant layer; format: cell-based
[1] = Reactive liquid-liquid extraction from aqueous compound solution into OA or OA with TBP, TOA or A336: aqueous concentrations; format: physicochemical; details: pH=5.3, 30° C.
[2] = Liquid-liquid extraction of carboxylic acids from fermentation medium into oleyl alcohol at different pH; format: physicochemical
[3] = Liquid-liquid extraction of isobutyric acid from fermentation medium into COFA at different pH; format: physicochemical
[4] = 30 min, pH 5.3
[5] = Liquid-liquid extraction of isobutyric acid from fermentation medium into SOFA at different pH; format: physicochemical
[6] = Liquid-liquid extraction of isobutyric acid from fermentation medium into oleic acid at different pH; format: physicochemical
anaerobic inoculum = test: Acetate Toxicity Assays (ATA); format: cell-based
Experimental: For the BMP tests, iBA provided the sole source of substrate over a range of conditions. Feed controls were prepared at organic loadings that spanned the lower and upper range of loadings used in the ATA and BMP tests, and gas production was monitored. Samples were prepared in triplicate with the seed concentration for all test bottles being 2000 mg/L. The feed control and ATA biodegradable synthetic feed composition contained 4000 mg/L acetate and 2000 mg/L propionate. The inorganic nutrient media used was similar to media presented in Table 5.1 of […], Anaerobic Biotechnology for Industrial […], Vanderbilt University, […], Nashville, p 115 (1996). The bottles were maintained at a temperature of 35° C.

[7] = 2 mL extractant on 2 mL aqueous solution
[8] = 6 mL extractant on 2 mL aqueous solution
[9] = 10 mL extractant on 2 mL aqueous solution
[10] = pH 3.14, ISPR ratio (Aq):(Oleyl Alcohol) 1:1
[11] = pH 3.14, ISPR ratio (Aq):(Oleyl Alcohol) 1:3
[12] = pH 4.94, ISPR ratio (Aq):(Oleyl Alcohol) 1:1
[13] = pH 4.94, ISPR ratio (Aq):(Oleyl Alcohol) 1:3
[14] = pH 7.24, ISPR ratio (Aq):(Oleyl Alcohol) 1:1
[15] = pH 7.24, ISPR ratio (Aq):(Oleyl Alcohol) 1:3

Conc. of acid in aqueous broth after extraction [2, 10]: 54070 µM
Conc. of acid in aqueous broth after extraction [2, 11]: 40280 µM
Conc. of acid in aqueous broth after extraction [2, 12]: 72000 µM
Conc. of acid in aqueous broth after extraction [2, 13]: 71860 µM
Conc. of acid in aqueous broth after extraction [2, 14]: 72460 µM
Conc. of acid in aqueous broth after extraction [2, 15]: 73310 µM
Compound: CC(C)(O)CC(=O)O [HMB]

Partition coefficients (P) [HA] org/aq [4]: 2.97 mol/mol
Compound: CC(C)CO [Isobutanol, 2-methyl-1-propanol]

Conc. of acid in aqueous broth after extraction [2, 10]: 140040 µM
Conc. of acid in aqueous broth after extraction [2, 11]: 106430 µM
Conc. of acid in aqueous broth after extraction [2, 12]: 162730 µM
Conc. of acid in aqueous broth after extraction [2, 13]: 159230 µM
Conc. of acid in aqueous broth after extraction [2, 14]: 169150 µM
Conc. of acid in aqueous broth after extraction [2, 15]: 173630 µM
Compound: CC(=O)O [Acetic Acid, acetic acid]

Continued, molecule first:

Compound: CCCCCCCC/C=C\CCCCCCCCO [OA, oleyl alcohol]
performance of the butanologen (glucose consumption, isobutanol production, FIG. 4) (isobutanologen PNY 2242; 48 hours, extractant as LLX layer): performed best
C (g/c) [g/L], free glucose during the SSF (isobutanologen PNY 2242; EPT 3.67 h): 37.2 g/L
C (g/c) [g/L], free glucose during the SSF (isobutanologen PNY 2242; EPT 21.00 h): 34.60 g/L
C (g/c) [g/L], free glucose during the SSF (isobutanologen PNY 2242; EPT 28.00 h): 29.7 g/L
C (g/c) [g/L], free glucose during the SSF (isobutanologen PNY 2242; EPT 48.00 h): 1.20 g/L
Acetic Acid (mM), aqueous concentration after addition of extractant [1, 7]: 13.13 mM
Formic Acid (mM), aqueous concentration after addition of extractant [1, 7]: 11.96 mM
Isobutanol (mM), aqueous concentration after addition of extractant [1, 7]: 3.01 mM
Isobutyric Acid (mM), aqueous concentration after addition of extractant [1, 7]: 8.01 mM
MES (AU), aqueous concentration after addition of extractant [1, 7]: 6954908 AU
Phosphate (AU), aqueous concentration after addition of extractant [1, 7]: 656297 AU
Acetic Acid (mM), aqueous concentration after addition of extractant [1, 8]: 12.98 mM
Formic Acid (mM), aqueous concentration after addition of extractant [1, 8]: 12.68 mM
Isobutanol (mM), aqueous concentration after addition of extractant [1, 8]: 1.19 mM
Isobutyric Acid (mM), aqueous concentration after addition of extractant [1, 8]: 4.95 mM
MES (AU), aqueous concentration after addition of extractant [1, 8]: 7135183 AU
Phosphate (AU), aqueous concentration after addition of extractant [1, 8]: 673645 AU
Acetic Acid (mM), aqueous concentration after addition of extractant [1, 9]: 12.73 mM
Formic Acid (mM), aqueous concentration after addition of extractant [1, 9]: 13.05 mM
Isobutanol (mM), aqueous concentration after addition of extractant [1, 9]: 0.77 mM
Isobutyric Acid (mM), aqueous concentration after addition of extractant [1, 9]: 3.57 mM
MES (AU), aqueous concentration after addition of extractant [1, 9]: 7168671 AU
Phosphate (AU), aqueous concentration after addition of extractant [1, 9]: 676874 AU

Compound: CCCCCCCCN(CCCCCCCC)CCCCCCCC [TOA, tru-n-octylamine]
efficiency of extraction of isobutyric acid (100 mM extractant in oleyl alcohol): less efficient

Compound: CC(C)C(=O)O [Isobutyric Acid, isobutyric acid]
Conc. of acid in aqueous broth after extraction [2, 10]: 19770 µM
Conc. of acid in aqueous broth after extraction [2, 11]: 8100 µM
Conc. of acid in aqueous broth after extraction [2, 12]: 46140 µM
Conc. of acid in aqueous broth after extraction [2, 13]: 30830 µM
Conc. of acid in aqueous broth after extraction [2, 14]: 93360 µM
Conc. of acid in aqueous broth after extraction [2, 15]: 91950 µM
Conc. Isobutyric Acid (%) ([3]; pH 4.08, ISPR ratio (Aq):(COFA) 1:1): 29.81%
Conc. Isobutyric Acid (%) ([3]; pH 4.08, ISPR ratio (Aq):(COFA) 1:3): 12.81%
Conc. Isobutyric Acid (%) ([3]; pH 4.82, ISPR ratio (Aq):(COFA) 1:1): 52.89%
Conc. Isobutyric Acid (%) ([3]; pH 4.82, ISPR ratio (Aq):(COFA) 1:3): 30.00%
Conc. Isobutyric Acid (%) ([3]; pH 6.95, ISPR ratio (Aq):(COFA) 1:1): 70.40%
Conc. Isobutyric Acid (%) ([3]; pH 6.95, ISPR ratio (Aq):(COFA) 1:3): 31.27%
Partition coefficients (P) [HA] org/aq [4]: 1.91 mol/mol
Conc. Isobutyric Acid (%) ([5]; pH 3.93, ISPR ratio (Aq):(SOFA) 1:1): 31.37%
Conc. Isobutyric Acid (%) ([5]; pH 3.93, ISPR ratio (Aq):(SOFA) 1:3): 12.68%
Conc. Isobutyric Acid (%) ([5]; pH 4.92, ISPR ratio (Aq):(SOFA) 1:1): 53.76%
Conc. Isobutyric Acid (%) ([5]; pH 4.92, ISPR ratio (Aq):(SOFA) 1:3): 27.63%
Conc. Isobutyric Acid (%) ([5]; pH 6.64, ISPR ratio (Aq):(SOFA) 1:1): 74.48%
Conc. Isobutyric Acid (%) ([5]; pH 6.64, ISPR ratio (Aq):(SOFA) 1:3): 33.23%
Conc. Isobutyric Acid (%) ([6]; pH 4.08, ISPR ratio (Aq):(Oleic Acid) 1:1): 29.60%
Conc. Isobutyric Acid (%) ([6]; pH 4.08, ISPR ratio (Aq):(Oleic Acid) 1:3): 13.00%
Conc. Isobutyric Acid (%) ([6]; pH 4.82, ISPR ratio (Aq):(Oleic Acid) 1:1): 49.16%
Conc. Isobutyric Acid (%) ([6]; pH 4.82, ISPR ratio (Aq):(Oleic Acid) 1:3): 23.36%
Conc. Isobutyric Acid (%) ([6]; pH 6.95, ISPR ratio (Aq):(Oleic Acid) 1:1): 67.35%
Conc. Isobutyric Acid (%) ([6]; pH 6.95, ISPR ratio (Aq):(Oleic Acid) 1:3): 28.60%
KE (+A336, oleyl alcohol with 100 mM of Aliquat 336): 0.036
KE (+TBA, oleyl alcohol with 100 mM of tributyl phosphate): 0.000
KE (+TOA, oleyl alcohol with 100 mM of trioctyl amine): 0.010
Cumulative Gas Production (% Theoretical Max) (anaerobic inoculum; ATA-syn 550 ppm iBA, Day 2): 18 % Theoretical Max
Cumulative Gas Production (% Theoretical Max) (anaerobic inoculum; ATA-syn 550 ppm iBA, Day 4): 45 % Theoretical Max
Cumulative Gas Production (% Theoretical Max) (anaerobic inoculum; ATA-syn 550 ppm iBA, Day 6): 65 % Theoretical Max
Cumulative Gas Production (% Theoretical Max) (anaerobic inoculum; ATA-syn 550 ppm iBA, Day 10): 82 % Theoretical Max
Cumulative Gas Production (% Theoretical Max) (anaerobic inoculum; ATA-syn 550 ppm iBA, Day 12): 85 % Theoretical Max
Cumulative Gas Production (% Theoretical Max) (anaerobic inoculum; ATA-syn 550 ppm iBA, Day 15): 86 % Theoretical Max
Cumulative Gas Production (% Theoretical Max) (anaerobic inoculum; ATA-syn 825 ppm iBA, Day 2): 14 % Theoretical Max
Cumulative Gas Production (% Theoretical Max) (anaerobic inoculum; ATA-syn 825 ppm iBA, Day 4): 36 % Theoretical Max
Cumulative Gas Production (% Theoretical Max) (anaerobic inoculum; ATA-syn 825 ppm iBA, Day 6): 56 % Theoretical Max
Cumulative Gas Production (% Theoretical Max) (anaerobic inoculum; ATA-syn 825 ppm iBA, Day 10): 82 % Theoretical Max
Cumulative Gas Production (% Theoretical Max) (anaerobic inoculum; ATA-syn 825 ppm iBA, Day 12): 83 % Theoretical Max
Cumulative Gas Production (% Theoretical Max) (anaerobic inoculum; ATA-syn 825 ppm iBA, Day 15): 84 % Theoretical Max
Cumulative Gas Production (% Theoretical Max) (anaerobic inoculum; ATA-syn 1100 ppm iBA, Day 2): 14 % Theoretical Max
Cumulative Gas Production (% Theoretical Max) (anaerobic inoculum; ATA-syn 1100 ppm iBA, Day 4): 36 % Theoretical Max
Cumulative Gas Production (% Theoretical Max) (anaerobic inoculum; ATA-syn 1100 ppm iBA, Day 6): 51 % Theoretical Max
Cumulative Gas Production (% Theoretical Max) (anaerobic inoculum; ATA-syn 1100 ppm iBA, Day 10): 82 % Theoretical Max
Cumulative Gas Production (% Theoretical Max) (anaerobic inoculum; ATA-syn 1100 ppm iBA, Day 12): 85 % Theoretical Max
Cumulative Gas Production (% Theoretical Max) (anaerobic inoculum; ATA-syn 1100 ppm iBA, Day 15): 85 % Theoretical Max
inhibition of gas generation (anaerobic inoculum; iBA concentrations of up to 1100 parts per million (ppm)): did not inhibit gas generation
